Experimental data reported in publication PMC9947563, “Identification of the molecular determinants of antagonist potency in the allosteric binding pocket of human P2X4” (Frontiers in Pharmacology, 2023).

Tests used:
[1] = system: rP2X4; conditions: ref Ase et al. (2015); cited from earlier work
[2] = molecular target: T1, rat P2X4 T312I (r4-T312I) (Rattus norvegicus, UniProt P51577, T312I); assay: ATP-induced calcium influx (Fluo-4) in 1321N1 cells stably expressing rat P2X4 T312I; assay type: cell-based
T1 construct: expressed in transfected cells; host or cells: 1321N1 astrocytoma cells, stably transfected
T1 sequence (P51577 1-388 T312I): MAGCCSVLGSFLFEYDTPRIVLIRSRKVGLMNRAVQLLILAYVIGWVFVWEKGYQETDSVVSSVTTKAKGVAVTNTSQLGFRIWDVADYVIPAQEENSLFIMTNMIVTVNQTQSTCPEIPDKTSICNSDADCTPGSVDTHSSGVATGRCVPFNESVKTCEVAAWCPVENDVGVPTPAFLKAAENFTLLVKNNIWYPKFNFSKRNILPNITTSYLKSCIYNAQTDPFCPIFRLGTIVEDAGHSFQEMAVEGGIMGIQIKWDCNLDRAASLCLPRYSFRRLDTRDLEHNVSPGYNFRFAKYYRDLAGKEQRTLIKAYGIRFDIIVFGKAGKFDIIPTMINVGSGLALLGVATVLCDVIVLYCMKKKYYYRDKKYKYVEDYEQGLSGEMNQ
Excerpt: Plasmid encoding rat P2X4 (r4-WT) ([Royle et al., 2005]) was a kind gift from Ruth Murrell-Lagnado, whilst that encoding human P2X4 with a C-terminal (His)10 tag has been reported previously ([Young et al., 2008]). Plasmids containing rat P2X4 T312I (r4-T312I) and human P2X4 I312T mutants (h4-I312T) were generated using the QuikChange Lightning site-directed mutagenesis kit (Agilent) according to manufacturer’s instructions. Sequencing of the constructs and of the genomic DNA from stably transfected cells confirmed correct full coding sequences.
1321N1 astrocytoma cells were cultured (at 37°C, 5% CO2) in Dulbecco’s modified Eagle’s medium (DMEM/F-12 with Glutamax) supplemented with 10% foetal bovine serum (FBS) and 200 unit/mL of penicillin and streptomycin antibiotics (Fisher Scientific). Stably transfected clones were grown in DMEM/F-12 with Glutamax medium supplemented with G-418 (Geneticin®, Fisher Scientific), 600 μg/mL and 150 μg/mL during selection and maintenance, respectively. FuGene HD Transfection Reagent (Promega) was used according to the manufacturer’s protocol for the generation of stable cell line expressing h4-WT, r4-WT, h4-I312T, and r4-T312I. Each cell line was then tested for P2X4 receptor expression by Western blot and for functionality using the Ca^2+ influx assay.
Cells were plated the day before assay into poly-lysine-coated 96-well plates at 40–55,000 cells/mL. To load cells with calcium-sensitive fluorescent dye, culture medium was replaced with modified Ringer’s buffer (140 mM NaCl, 10 mM HEPES, 10 mM Glucose, 1 mM MgCl2, 1 mM CaCl2, 2.5 mM KCl, 0.5% BSA, pH = 7.4) containing 2.6 μM FLUO4-AM (Fisher Scientific) and 250 μM probenecid (Sigma), and cells were incubated for 20–30 min. Prior to assay, buffer was replaced with fresh modified Ringer’s buffer containing probenecid but not the dye. […] A Fluoroskan Ascent FL plate reader (Fisher Scientific) equipped with a solution dispenser and an appropriate filter pair (excitation: 485 nm, emission: 538 nm) was used to record 5-s baseline followed by P2X4-mediated calcium influx measurements for 20–25 s after ATP stimulation (final concentration ranging between 0.03 and 100 μM in buffered solution, pH = 7.4). The collected responses were normalized to the first data-point recorded after ATP injection.
Data processing and data analysis were carried out using Graphpad Prism version 6 for Mac. Figures are presented as Mean ± SEM. Statistical significance of any difference observed between samples was calculated through one-way ANOVA followed by Dunnett’s multiple comparisons test with a single pooled variance (control, unless otherwise specified) or, when comparing only two sets of data, using an unpaired t-test with Welch’s correction. When comparing data obtained from multiple independent experiments (N), each dataset was normalized to the mean value obtained for the vehicle control.

[3] = system: zebrafish P2X4; set-up: method as in Ase et al. (2015); conditions: ref Ase et al. (2015); cited from earlier work
[4] = system: mP2X4; conditions: ref Ase et al. (2015); read-out: mP2X4 IC50; cited from earlier work

CC(C)c1cc(Br)c(NC(=O)Nc2cccnc2)c(Br)c1 [BX430]
IC50 [1]: > 10000 nM | IC50 [2]: 1390 nM | increase in BX430 potency by T312I mutation in rat P2X4 ([2]; rat P2X4 T312I vs rat P2X4 WT): approx. 47 fold | Hill coefficient (BX-430 inhibition curve) ([2]; rat P2X4 T312I, 1 µM ATP): 2.475 | IC50 [3]: 1890 nM | IC50 [4]: > 10000 nM
